Data on three compounds can be found in patent US6083941A, “Inhibition of NMDA receptor activity by pregnenolone sulfate derivatives” (Trustees of Boston University, priority 1998, dated 2000).

Test [1] has as its system NMDA receptor. Nature of the test: Whole cell patch clamp, NMDA-induced current in cultured chick spinal cord neurons. Format: cell-based. The following applies: for average inhibition of the current induced by 30 μM NMDA: 50 μM steroid. How it is done:
Cultures of dissociated spinal cord neurons were prepared as previously described (Farb, D. H., et al., J. Cell Biol., 80:651-661 (1979)). Briefly, the dissociated cells from 7-day chick embryos were plated on collagen-coated 35-mm tissue culture dishes in Eagle's minimum essential medium supplemented with 2.4 mM glutamine, 10% (v/v) heat-inactivated horse serum, 5% (v/v) chick embryo extract and antibiotics. Cultures were maintained in a humidified atmosphere of 5% CO2, 95% air at 37°. Cytarabine (1 μM) was added to the culture medium after 36 hr. of the initial plating to inhibit the proliferation of non-neuronal cells. One day later, this medium was replaced with a similar medium supplemented with 20.5 mM glucose, 19 mM KCl, and 2.5% chick embryo extract. Fresh medium was added twice weekly. Cultured neurons were used in experiments within 2-4 weeks after plating.
Experiments were carried out in 35-mm tissue culture dishes on the stage of an inverted phase contrast microscope. Whole cell currents were recorded by the whole cell variant of the patch clamp technique (Hamill, O. P., et al., Pfagers Arch. 891:85-100 (1981)). Patch electrodes had tip openings of about […] and resistances of 3-8 M.OMEGA. using an intracellular solution comprised of the following (in mM): 140 CsCl, 11 EGTA, and 10 HEPES (pH adjusted to 7.2 with CsOH). In experiments in which a high concentration of glycine was used, the intracellular solution was replaced with a low chloride (10 mM) pipette solution. This solution contained the following (in mM): 140 potassium gluconate, 10 KCl, 8 sodium gluconate, 11 EGTA, and 10 HEPES (pH adjusted to 7.2 with KOH). To prevent a marked run-down of NMDA-induced current at high NMDA concentrations, 4 mM potassium ATP was included in the intracellular solution. The bath solution contained the following (in mM): 150 NaCl, 4 KCl, 1 CaCl2, and 10 HEPES (pH adjusted to 7.2 with NaOH). No glycine was added to the solutions containing NMDA, because no additional glycine was required to obtain a robust NMDA response, and there was no effect of a maximal concentration (10 μM) of glycine on 5β3αS inhibition of the NMDA response. All experiments were performed at room temperature (23-25° C.).
Recordings were made using an Axopatch 1B patch clamp apparatus (Axon Instruments, Burlingame, Calif.). Cells with series resistances greater than 10 M.OMEGA. were rejected. After partial compensation, series resistances were between 3.5 and 6 M.OMEGA.. The holding potential was maintained at -70 mV unless otherwise noted. Currents were filtered at 1 kHz using an eight-pole Bessel filter (-3 dB) and digitized ([…]) using an on-line data acquisition system (pClamp, Axon Instruments).
Drug solutions were applied to single neurons by pressure ejection (15 psi) from seven-barrel pipettes. Seven-barrel pressure pipettes were positioned approximately […] from the neuronal soma. Under these conditions, the drug solution in the pressure pipette rapidly and effectively replaces the solution surrounding the target neurons with less than 10% dilution (Choi, D. W., et al., Nature (Lond.) 269:342-344 (1977); Chan, C. Y., et al., Life Sci., 83:2061-2069 (1983); Chan, C. Y. and Farb, D. H., J. Neurosci., 5:2365-2373 (1985)). All drugs were obtained from Sigma, with the except of AMPA hydrobromide (Research Biochemicals) and steroids (Steraloids). Stock solutions of steroids were prepared in dimethyl sulfoxide, the final concentration of which was 0.5% (v/v). To obviate the possible effects of dimethyl sulfoxide on the relevant agonist-induced currents, all other drug solutions including NMDA, kainate, AMPA and external buffer (in the pressure pipette) also contained 0.5% dimethyl sulfoxide. […]

The test system of test [2] is glutamate receptor-mediated spontaneous EPSCs in rat hippocampal neurons. Nature of the test: Spontaneous excitatory postsynaptic currents (EPSCs), whole-cell recording in cultured hippocampal neurons. Format: cell-based. The following applies: for effect on spontaneous EPSCs: cultures of rat hippocampal neurons; for EC50: voltage-clamped at -70 mV, read-out: EC50 of EPSC potentiation. As to the method: Primary cultures of hippocampal neurons were prepared from embryonic day 18 rats. Cultured neurons were used in experiments 2-3 weeks after plating.
Spontaneous excitatory postsynaptic currents were recorded by the whole-cell variant of the patch clamp technique. The pipet solution usually contained (in mM) KCl 10, EGTA 11, sodium gluconate 3, potassium gluconate 140 and HEPES 10, adjusted to pH 7.2 with KOH. The bath solution contained (in mM) NaCl 150, KCl 4, CaCl2 1, and HEPES 10, adjusted to pH 7.2 with NaOH. Because NMDA-induced currents are subject to voltage-dependent block by extracellular Mg^2+, no magnesium salts were added to the bath solution. All records were made with the cell membrane potential clamped at -70 mV, which is very close to the Cl- equilibrium potential. Therefore, IPSCs are not expected to be observed and spontaneous activity should consist of EPSCs. The complete blockage of spontaneous activity by the co-application of the NMDA receptor antagonist APV and the non-NMDA receptor antagonist DNQX argues that the observed spontaneous activity is glutamate receptor-mediated.
Drug solutions were applied to single neurons by pressure ejection (15 psi) from 7-barrel pipets (tip opening ~3-5 μm) positioned ~50 μm from the neuronal soma. In all experiments, neurons received a 40s application of either steroid or steroid plus antagonist(s), followed by 10-20s pulse of external buffer solution.

Test [3] deals with NMDA-induced seizure and death in mice. As to the kind of experiment: NMDA-induced seizure and death (100 mg/kg NMDA challenge). Format: in vivo. The following applies: steroid 25 mg/kg i.p., DMSO 50%. As to the method:
5β3αHS (25 mg/kg, i.p.) protects mice from NMDA-induced death. None of the steroids tested altered the latency to NMDA-induced seizure. However, 100% of the animals that received 5β3αHS survived the 100 mg/kg NMDA challenge compared to 50% for DMSO, 75% for 5β3αS and E2 (3)HS, and 50% for E2 (17)HS.

Several values for one entry are separate records, joined by “and”; a condition that tells them apart may be missing. Equal entries are not always repeated. Entries after “also recorded” stand apart in the source; their conditions may differ. Structures can show the parent of a compound that is named as a salt. Where two headings read alike, the source gives them in different places.

As for `CC(=O)C1CCC2C3CC=C4CC(OS(=O)(=O)O)CCC4(C)C3CCC12C` (centres unmarked) [PS, pregnenolone sulfate], in test [1] (100 μM steroid in the electrode buffer), the “average NMDA response with intracellular steroid” value is recorded as “did not differ significantly from control”. The “potentiation of the NMDA response” value in test [1] (100 μM steroid in the presence of 10 μM arachidonic acid) is recorded as 182±25%; in test [1] (100 μM steroid in the presence of 200 μM 5β3βS), “still evident”; in test [1] (100 μM steroid, in the presence of 100 μM spermine), 178±12%; in test [1] (after approximately 1 hour of exposure to 10 mM DTT), 161±12%. Also, the “potentiation of the NMDA induced current” value in test [1] (100 μM steroid, after about 1 hour of 4 mM DTT) is 165±26%. Besides, the “potentiation of the response to 30 μM NMDA” value in test [1] (100 μM steroid, in the absence of spermine) was 150±14%. The “potentiation of the 30 μM NMDA response” value in test [1] (after DTT plus NEM treatment) is reported as 103±23%. The “potentiation of the NMDA response by extracellularly applied steroid” value in test [1] (in the absence of intracellular PS) came to 158±24%; in test [1] (in the presence of intracellular PS (100 μM)), 152±23%. In addition, in test [2] (100 μM steroid, APV (40 μM)), the “potentiation of EPSCs with NMDA receptors blocked” value is reported as “reduced”. Also, in test [2], the “effect on spontaneous EPSCs” value is “potentiates spontaneous EPSCs; also recorded: potentiates spontaneous excitatory post-synaptic currents”. The concentration for a half-maximal effect (EC50) in test [2] (listed as pregnenolone sulfate) turned out to be 11.9 µM; in test [2], 5.6 µM.
Consider `CC(=O)[C@H]1CC[C@H]2[C@@H]3CC[C@@H]4C[C@H](OS(=O)(=O)O)CC[C@]4(C)[C@H]3CC[C@]12C` [5β3αS, 3α-hydroxy-5β-pregnan-20-one sulfate], for which, in test [3], the “animals that survived the 100 mg/kg NMDA challenge” value was determined as 75%. Besides, the figures for the “average inhibition of the current induced by 30 μM NMDA” value in test [1] (in the absence of glycine) and in test [1] (with added 10 μM glycine) were 49.1±3.4% and 51.3±3.5%, respectively. In test [1] (100 μM steroid applied with NMDA, holding potential -70 mV, sulfate), the “inhibition of the response to 30 μM NMDA” value is 66% and 66.1±2.7%. The “average inhibition of the NMDA-induced current” value in test [1] (100 μM steroid, holding potential +50 mV) was found to be 62.0±2.8%; in test [1] (100 μM steroid, holding potential -70 mV, voltage dependence test), 63.2±2.7%. Moreover, the “maximal inhibition of the 30 μM NMDA response” value in test [1] (curve-fit analysis) is recorded as 101.1%. Besides, in test [1] (in the presence of 50 μM 5β3αS), the “NMDA nH in the presence of steroid” value was determined as 1.46. Besides, in test [1] (read-out: EC50 for inhibition of the 30 μM NMDA response, concentration-response curve, curve-fit, 30 μM NMDA, sulfate), the concentration giving a half-maximal response (EC50) was 62 µM and 62.1 µM. In test [1] (steroid alone), the “direct response to steroid applied alone” value was “did not produce any direct response”. Also, in test [2], the “effect on spontaneous EPSCs” value is listed as “inhibits spontaneous EPSCs”.
For the compound `CC(=O)[C@H]1CC[C@H]2[C@@H]3CC[C@@H]4C[C@H](OC(=O)CCC(=O)O)CC[C@]4(C)[C@H]3CC[C@]12C` [5β3αHS, 3α-hydroxy-5β-pregnan-20-one hemisuccinate], the “animals that survived the 100 mg/kg NMDA challenge” value in test [3] is given as 100%.
